Results as given in patent US20220323383A1, “SMALL-MOLECULAR ADJUVANTS AND IMPLEMENTATIONS THEREOF” (JAWAHARLAL NEHRU CENTRE FOR ADVANCED SCIENTIFIC RESEARCH, priority 2019, published 2022).

What was measured:
Assay type in all cases: cell-based
human RBCs = assay: Haemolytic activity; settings: concentration at which 50% of human blood cells are lysed; 1 h at 37° C.
Procedure: Erythrocytes were isolated from freshly drawn, heparanized human blood and re-suspended to 5 vol % in PBS (pH 7.4). In a 96-well microtiter plate, 150 μl of erythrocyte suspension was added to 50 μl of serially diluted compound. Two controls were made, one without compound and other with 50 μl of 1 vol % solution of Triton X-100. The plate was incubated for 1 h at 37° C. The plate was then centrifuged at 3,500 rpm for 5 min, 100 μl of the supernatant from each well was transferred to a fresh 96-well microtiter plate, and A540 was measured. Percentage of hemolysis was determined as (A−A0)/(Atotal−A0)×100, where A is the absorbance of the test well, A0 the absorbance of the negative controls (without compound), and Atotal the absorbance of 100% hemolysis wells (with Triton X-100), all at 540 nm.
Toxicity studies of the compounds were done on freshly drawn human RBCs. Toxicity of the compounds were defined by their HC50 values (Table 2), i.e. the concentration of compound at which 50% of the blood cells are lysed.

A. baumannii R674 [1] = assay: Individual antibacterial activity (MIC) of adjuvants; settings: Acinetobacter baumannii; adjuvant alone; A. baumannii R674; read-out: MIC against clinical isolates of bacteria
Procedure: (§1) The combination efficacy with antibiotics from different classes and individual antibacterial activity of the synthesized adjuvants was evaluated against the above mentioned MDR and NDM-1 strains of Gram-negative bacteria. All the bacteria were grown in peptone. The bacterial samples were freeze dried and stored at −80° C. 3 μl of these stocks were added to 3 mL of peptone and the culture was grown for 6 h at 37° C. prior to the experiments.
(§2) All synthesized compounds were assayed for their antibacterial activity in combination with antibiotics in a modified chequerboard micro-dilution broth format. Stock solutions were made by serially diluting the compounds using autoclaved millipore water. The bacterial freeze dried stock samples were stored at −80° C. About 3 μL of these stocks were added to about 3 mL of the respective broth and the culture was grown for about 6 h at about 37° C. with prior to the experiments. This 6 h grown culture gives about 10^8 cfu/mL in case of A. baumannii R674, P. aeruginosa R590, E. coli R3336 and K. pneumoniae R3934 which were determined by spread plating method. This 6 h grown culture was diluted to give effective cell concentration of 10^5 cfu/mL, and then used for the chequerboard assay. Adjuvants and antibiotics were serially diluted in two-fold, in sterile millipore water. 25 μL of these serial dilutions of the antibiotics and 25 μL of compounds were added to the wells of 96 well plate followed by the addition of about 150 μL of bacterial solution (˜10^5 cfu/mL). The plates were then incubated at about 37° C., 150 rpm in the incubator and O.D at 600 nm was recorded at 24 h using TECAN (Infinite series, M200 pro) Plate Reader. The wells with similar OD as the media control contained the required concentration of the antibiotic and adjuvant for antibacterial efficacy. The potentiation ability of the adjuvants was determined by calculating the potentiation factor and the Fractional Inhibitory concentration (FIC) index. Fractional Inhibitory Concentration (FIC) is expressed as, FIC=[X]/MICX, where [X] is the lowest inhibitory concentration of antibiotic in the presence of the adjuvant. Whereas FIC index is expressed as, FICI=FICantibiotic+FICadjuvant. The values of FIC index give an insight about the nature of the combination. Potentiation factor which means fold-reduction in the MIC of the antibiotic, when used in combination with the adjuvant was also determined. Potentiation factor=[Minimum inhibitory concentration (MIC) of antibiotic in absence of adjuvant]/[MIC of antibiotic in presence of adjuvant]. […] The combination efficacies of adjuvants with various antibiotics are furnished in Table 1. It should be noted that various other resistant strains of bacteria (Gram-positive and Gram-negative) can be tested with a number of other antibiotics to check the potentiation capacity of the adjuvants.

E. coli R3336 [2] = assay: as above; settings: Escherichia coli, R3336, read-out: MIC against clinical isolates of bacteria
Procedure: as §1, §2

P. aeruginosa R590 [3] = assay: as above; settings: Pseudomonas aeruginosa; adjuvant alone; P. aeruginosa R590; read-out: MIC against clinical isolates of bacteria
Procedure: as §1, §2

K. pneumoniae R3934 [4] = assay: as above; settings: Klebsiella pneumoniae; adjuvant alone; K. pneumoniae R3934; read-out: MIC against clinical isolates of bacteria
Procedure: as §1, §2

A. baumannii R674 [5] = assay: Chequerboard combination efficacy of adjuvant with antibiotics
Procedure: (§3) All the solvents were of reagent grade, which were distilled and dried before its use. All the reagents were purchased from Sigma-Aldrich, Alfa-Aesar, S.D. Fine, Avra and Spectrochem, and were used without further purification. Analytical thin layer chromatography (TLC) was performed on E. Merck TLC plates pre-coated with silica gel 60 F254 and visualization was carried out using UV light and Iodine. Column chromatography was performed on silica gel (60-120 mesh) using different ratio of chloroform and methanol solvent system. Nuclear magnetic resonance spectra were recorded on Bruker (AV-400) 400 MHz spectrometer in deuterated solvents. Mass spectra were obtained using 6538-UHD Accurate mass Q-TOF LC-MS instrument. For optical density measurement during bacteriology experiments, Tecan Infinite Pro series M200 Microplate Reader was used. Bacterial strains, A. baumannii (R674), P. aeruginosa (R590), E. coli (R3336) and K. pneumoniae (R3934) were used for the studies.
as §1, §2

E. coli R3336 [6] = assay: as above
Procedure: as §3, §1, §2

P. aeruginosa R590 [7] = assay: as above; settings: P. aeruginosa R590
Procedure: as §3, §1, §2

K. pneumoniae R3934 [8] = assay: as above
Procedure: as §3, §1, §2

NCCCC[C@H](N)C(=O)NCCCCCCN(CCCCCCNC(=O)[C@@H](N)CCCCN)CC(=O)NC1C2CC3CC(C2)CC1C3 (stereo partly shown) [Compound 15, N-(adamantan-2-yl)-2-[N′,N′-{bis-(6-^LLys) amido)hexyl} amino] ethanamide pentakistrifluoroacetate]
HC50 (human RBCs): >1024 µg/mL | MIC (A. baumannii R674 [1]): 128 µg/mL | MIC (E. coli R3336 [2]): > 512 µg/mL | MIC (P. aeruginosa R590 [3]): 64 µg/mL | MIC (K. pneumoniae R3934 [4]): > 512 µg/mL | MIC of antibiotic in presence of adjuvant (A. baumannii R674 [5]; antibiotic Ampicillin): No potentiation | FICI (A. baumannii R674 [5]; antibiotic Ciprofloxacin): 1.25 | MIC of antibiotic in presence of adjuvant (A. baumannii R674 [5]; antibiotic Ciprofloxacin): 64 µg/mL | Potentiation factor (A. baumannii R674 [5]; antibiotic Ciprofloxacin): 4 | FICI (A. baumannii R674 [5]; antibiotic Erythromycin): 0.1875 | MIC of antibiotic in presence of adjuvant (A. baumannii R674 [5]; antibiotic Erythromycin): 32 µg/mL | Potentiation factor (A. baumannii R674 [5]; antibiotic Erythromycin): 16 | FICI (A. baumannii R674 [5]; antibiotic Fusidic acid): <0.07 | MIC of antibiotic in presence of adjuvant (A. baumannii R674 [5]; antibiotic Fusidic acid): <0.5 µg/mL | Potentiation factor (A. baumannii R674 [5]; antibiotic Fusidic acid): >128 | FICI (A. baumannii R674 [5]; antibiotic Linezolid): 1.125 | Potentiation factor (A. baumannii R674 [5]; antibiotic Linezolid): 8 | FICI (A. baumannii R674 [5]; antibiotic Minocycline): 0.5625 | MIC of antibiotic in presence of adjuvant (A. baumannii R674 [5]; antibiotic Minocycline): 0.5 µg/mL | Potentiation factor (A. baumannii R674 [5]; antibiotic Minocycline): 16 | FICI (A. baumannii R674 [5]; antibiotic Rifampicin): 0.1289 | MIC of antibiotic in presence of adjuvant (A. baumannii R674 [5]; antibiotic Rifampicin): 0.25 µg/mL | Potentiation factor (A. baumannii R674 [5]; antibiotic Rifampicin): 256 | MIC of antibiotic in presence of adjuvant (A. baumannii R674 [5]; antibiotic Streptomycin): No potentiation | FICI (A. baumannii R674 [5]; antibiotic Tetracycline): 0.5156 | MIC of antibiotic in presence of adjuvant (A. baumannii R674 [5]; antibiotic Tetracycline): 2 µg/mL | Potentiation factor (A. baumannii R674 [5]; antibiotic Tetracycline): 64 | FICI (A. baumannii R674 [5]; antibiotic Vancomycin): 0.5625 | Potentiation factor (A. baumannii R674 [5]; antibiotic Vancomycin): 2 | FICI (E. coli R3336 [6]; antibiotic Fusidic acid): <0.1875 | Potentiation factor (E. coli R3336 [6]; antibiotic Fusidic acid): >16 | MIC of antibiotic in presence of adjuvant (E. coli R3336 [6]; antibiotic Linezolid): No potentiation | FICI (E. coli R3336 [6]; antibiotic Minocycline): <0.0469 | MIC of antibiotic in presence of adjuvant (E. coli R3336 [6]; antibiotic Minocycline): 0.5 µg/mL | Potentiation factor (E. coli R3336 [6]; antibiotic Minocycline): 64 | FICI (E. coli R3336 [6]; antibiotic Rifampicin): <0.0469 | MIC of antibiotic in presence of adjuvant (E. coli R3336 [6]; antibiotic Rifampicin): 16 µg/mL | Potentiation factor (E. coli R3336 [6]; antibiotic Rifampicin): 32 | Potentiation factor (P. aeruginosa R590 [7]; antibiotic Chloramphenicol): 4 | FICI (P. aeruginosa R590 [7]; antibiotic Colistin): 0.3125 | MIC of antibiotic in presence of adjuvant (P. aeruginosa R590 [7]; antibiotic Colistin): 0.25 µg/mL | Potentiation factor (P. aeruginosa R590 [7]; antibiotic Colistin): 4 | MIC of antibiotic in presence of adjuvant (P. aeruginosa R590 [7]; antibiotic Daptomycin): No potentiation | FICI (P. aeruginosa R590 [7]; antibiotic Fusidic acid): <0.1289 | MIC of antibiotic in presence of adjuvant (P. aeruginosa R590 [7]; antibiotic Fusidic acid): <0.25 µg/mL | Potentiation factor (P. aeruginosa R590 [7]; antibiotic Fusidic acid): >256 | FICI (P. aeruginosa R590 [7]; antibiotic Linezolid): 0.2812 | Potentiation factor (P. aeruginosa R590 [7]; antibiotic Linezolid): 4 | FICI (P. aeruginosa R590 [7]; antibiotic Minocycline): 0.5 | MIC of antibiotic in presence of adjuvant (P. aeruginosa R590 [7]; antibiotic Minocycline): 2 µg/mL | Potentiation factor (P. aeruginosa R590 [7]; antibiotic Minocycline): 4 | FICI (P. aeruginosa R590 [7]; antibiotic Rifampicin): <0.126 | MIC of antibiotic in presence of adjuvant (P. aeruginosa R590 [7]; antibiotic Rifampicin): <0.125 µg/mL | Potentiation factor (P. aeruginosa R590 [7]; antibiotic Rifampicin): >1024 | FICI (P. aeruginosa R590 [7]; antibiotic Tetracycline): 0.5078 | MIC of antibiotic in presence of adjuvant (P. aeruginosa R590 [7]; antibiotic Tetracycline): 2 µg/mL | Potentiation factor (P. aeruginosa R590 [7]; antibiotic Tetracycline): 128 | FICI (K. pneumoniae R3934 [8]; antibiotic Fusidic acid): <0.0781 | MIC of antibiotic in presence of adjuvant (K. pneumoniae R3934 [8]; antibiotic Fusidic acid): 8 µg/mL | Potentiation factor (K. pneumoniae R3934 [8]; antibiotic Fusidic acid): 64 | MIC of antibiotic in presence of adjuvant (K. pneumoniae R3934 [8]; antibiotic Linezolid): No potentiation | FICI (K. pneumoniae R3934 [8]; antibiotic Minocycline): <0.07 | MIC of antibiotic in presence of adjuvant (K. pneumoniae R3934 [8]; antibiotic Minocycline): 0.5 µg/mL | Potentiation factor (K. pneumoniae R3934 [8]; antibiotic Minocycline): 128 | FICI (K. pneumoniae R3934 [8]; antibiotic Rifampicin): <0.1289 | MIC of antibiotic in presence of adjuvant (K. pneumoniae R3934 [8]; antibiotic Rifampicin): 2 µg/mL | Potentiation factor (K. pneumoniae R3934 [8]; antibiotic Rifampicin): 256
